# Reference: US8148411B2, “2-hetarylthiazole-4-carboxamide derivatives, their preparation and use as pharmaceuticals” (Bayer Pharma Aktiengesellschaft, priority 2007, dated 2012)
# Tested on: TLR7
# Experiment: TLR-induced cytokine release in human peripheral blood mononuclear cells (PBMC), TNF-alpha by ELISA
# Type: cell-based
# Details: human PBMC incubated 18 hours with test substance in presence of TLR7 ligand; TNF-alpha in supernatant by ELISA; read-out: EC50 (TNF-α TLR7)
# Experimental: TLR-Induced Cytokine Release in Human “Peripheral Blood Mononuclear Cells” (PBMC)
# PBMCs isolated from human whole blood are stimulated using a TLR ligand.
# The cytokine determination is carried out by means of ELISA kits; a proliferation/cell metabolism determination is carried out using Alamar Blue.
# For the cell preparation, about 200 ml of blood are treated with an anticoagulant (e.g. citrate Monovettes). Per Leucosep tube, 15 ml of Histopaque (room temperature, RT) are poured in and forced downwards through the inserted frit by brief initial centrifugation (one minute at 1000×g, RT). 20 ml of blood are added to the tubes prepared in this way and centrifuged at 800×g for 15 minutes (RT). After centrifugation, the following layering results from the top to the bottom:
# plasma-PBMC-Histopaque-filter disc-Histopaque-erythrocytes and granulocytes. The supernatant plasma is aspirated. The PBMC are transferred together with the underlying Histopaque to a new 50 ml tube, the contents of two Leucosep tubes always being added to one 50 ml tube. The 50 ml tubes are then filled to 50 ml with PBS. This cell suspension is centrifuged at 300×g (RT) for 10 minutes.
# The liquid supernatant is tipped off and the cell pellet is resuspended with a little PBS and subsequently filled to 50 ml with PBS. This washing step is repeated twice. The resulting pellet is taken up in a defined volume of medium (with additives). For the testing of the substances, PBMC are incubated for 18 hours with titrated concentrations of the test substances, e.g. in the presence or absence of TLR7 or TLR9 ligands. On the next day, the supernatants are investigated for the content of TNF-alpha or other cyto- or chemokines by means of specific ELISA. The metabolic activity of the treated cells is determined with the aid of Alamar Blue.
row,Compound,EC50 [µM]
1,"Cc1ccc(C(N)=O)c(NC(=O)c2csc(-c3ccc(N)nc3)n2)c1 [Example 2.4, N-[2-(Aminocarbonyl)-5-methylphenyl]-2-(6-aminopyridin-3-yl)thiazole-4-carboxamide]",1.3
2,"NC(=O)c1ncccc1NC(=O)c1csc(-c2ccncc2)n1 [Example 1.21, 3-[(2-Pyridin-4-ylthiazole-4-carbonyl)amino]pyridine-2-carboxamide]",5.2
3,"NC(=O)c1cc(Cl)ccc1NC(=O)c1csc(-c2cccnc2)n1 [Example 1.6, N-[2-(Aminocarbonyl)-4-chlorophenyl]-2-(3-pyridinyl)-4-thiazolecarboxamide]",30
4,"NC(=O)c1ccccc1NC(=O)c1csc(-c2ccncc2)n1 [Example 1.3, N-[2-(Aminocarbonyl)phenyl]-2-(4-pyridinyl)-4-thiazolecarboxamide]",1.3
5,"NC(=O)c1ccncc1NC(=O)c1csc(-c2ccncc2)n1 [Example 1.22, 3-[(2-Pyridin-4-ylthiazole-4-carbonyl)amino]isonicotinamide]",7
6,"CC(C)(C)c1cc(NC(=O)c2csc(-c3cccnc3)n2)c(C(N)=O)s1 [Example 1.17, N-[2-(Aminocarbonyl)-5-(1,1-dimethylethyl)-3-thienyl]-2-(3-pyridinyl)-4-thiazolecarboxamide]",2.6
7,"NC(=O)c1ncccc1NC(=O)c1csc(-c2cccnc2)n1 [Example 1.7, 3-[(2-Pyridin-3-ylthiazole-4-carbonyl)amino]pyridine-2-carboxamide]",1.8
8,"Cn1ncc(NC(=O)c2csc(-c3ccncc3)n2)c1C(N)=O [Example 1.2, N-[5-(Aminocarbonyl)-1-methyl-1H-pyrazol-4-yl]-2-(4-pyridinyl)-4-thiazolecarboxamide]",2.4
9,"Cc1ccc(C(N)=O)c(NC(=O)c2csc(-c3ccncc3)n2)c1 [Example 1.8, N-[2-(Aminocarbonyl)-5-methylphenyl]-(4-pyridinyl)-4-thiazolecarboxamide]",1.1
10,"Cc1ccc(C(N)=O)c(NC(=O)c2csc(-c3cnccc3C(F)(F)F)n2)c1 [Example 1.11, N-[2-(Aminocarbonyl)-5-methylphenyl]-2-[4-(trifluoromethyl)-3-pyridinyl]-4-thiazolecarboxamide]",30
11,"Cc1ccc(NC(=O)c2csc(-c3cccnc3)n2)c(C(N)=O)c1 [Example 1.4, N-[2-(Aminocarbonyl)-4-methylphenyl]-2-(3-pyridinyl)-4-thiazolecarboxamide]",0.49
12,"Cc1ccc(C(N)=O)c(NC(=O)c2csc(-c3cccnc3)n2)c1 [Example 1.5, N-[2-(Aminocarbonyl)-5-methylphenyl]-2-(3-pyridinyl)-4-thiazolecarboxamide]",4.1
13,"NC(=O)c1cc(F)ccc1NC(=O)c1csc(-c2cccnc2)n1 [Example 1.18, N-[2-(Aminocarbonyl)-4-fluorophenyl]-2-(3-pyridinyl)-4-thiazolecarboxamide]",1.9
14,"NC(=O)c1ccccc1NC(=O)c1csc(-c2cccnc2)n1 [Example 1.1, N-[2-(Aminocarbonyl)phenyl]-2-(3-pyridinyl)-4-thiazolecarboxamide]",0.9
